# Patent US10189809B2, “SGC stimulators” (Ironwood Pharmaceuticals, Inc., priority 2010, dated 2019)
# Like-named read-outs stand apart in the source and are kept apart here.
# Assays:
# [1] = biological target: soluble guanylate cyclase (sGC) (Homo sapiens (Human), UniProt Q02108+Q02153); test: sGC-HEK-cGMP assay run with SNP incubation (HEK WC assay); assay type: cell-based; conditions: for EC50: in the presence of 10 uM SNP
# Description: Human embryonic kidney cells (HEK293), endogenously expressing soluble guanylate cyclase (sGC), were used to evaluate the activity of test compounds. Compounds stimulating the sGC receptor should cause an increase in the intracellular concentration of cGMP. HEK 293 cells were seeded in Dulbecco's Modification of Eagle's Medium supplemented with fetal bovine serum (10% final) and L-glutamine (2 mM final) in a 200 μL volume at a density of 1×10^5 cells/well in a poly-D-lysine coated 96 well flat bottom plate and grown overnight at 37° C. Medium was aspirated and cells were washed with 1× Hank's Buffered Saline Salt Solution (200 μL). Cells were then incubated for 15 minutes at 37° C. with 0.5 mM 3-isobutyl-1-methylxanthine (200 μL). Test article and sodium nitroprusside were then added to the assay mixture (2 μL each) and incubated at 37° C. for 10 minutes. After the 10 minute incubation, the assay mixture was aspirated and 0.1M HCl (200 μL) was added to the cells. The plate was incubated at 4° C. for 30 minutes in the 0.1M HCl to stop the reaction and lysed the cells. The plates were then centrifuged at 1,200 g for 5 minutes at room temperature. Supernatants were collected and transferred to a new flat bottom 96 well plate for analysis. Vehicle controls were carried out using DMSO (1%). […] Samples were diluted with an equal volume of 1 M Ammonium Acetate (pH 7) to neutralize samples for better chromatography. […] EC50 values were calculated from concentration-response curves generated with GraphPad Prism Software.
# [2] = biological target: Human soluble guanylate cyclase enzyme (hsGC) (Homo sapiens (Human), UniProt Q02108+Q02153); test: Purified human sGC enzyme activity assay; assay type: biochemical; conditions: for sGC Enzyme (specific activity at 10 μM) / sGC Enzyme (fold increase at 10 μM without SNP) / sGC Enzyme (fold increase at 10 μM): 10 μM compound; for sGC Enzyme (specific activity at 30 μM) / sGC Enzyme (fold increase at 30 μM without SNP) / sGC Enzyme (fold increase at 30 μM): 30 μM compound; for sGC Enzyme (fold increase at 10 μM) / sGC Enzyme (fold increase at 30 μM): without the addition of SNP
# Description: Human soluble guanylate cyclase enzyme (hsGC) obtained from Enzo Inc. (P/N: ALX-201-177) was used to evaluate the activity of test compounds. The assay reactions contained 0.1 M Tris (pH 8.0), 0.5 mg/mL BSA (pH 8.0), 2 mM DTT, 2 mM MgCl2, 300 μM GTP, 1 mM 3-isobutyl-1-methylxanthine (IBMX) and 5 ng human soluble guanylate cyclase enzyme. Test compounds in DMSO were then added (2 μL, 10 or 30 μM final concentration) and incubated (200 μL, 96-well plate format) at 37° C. for 30 minutes. The controls were carried out using 2 μL DMSO. After the 30 minute incubation, the reaction was stopped with the addition of 200 μL of cold methanol. The plate was then centrifuged at 3,200 rpm for 10 minutes at room temperature. Supernatants (200 μL) were collected and transferred to a new 96 well plate for analysis.
# An 8 point cGMP (Sigma-Aldrich P/N: G6129) standard curve was prepared in assay buffer ranging from 0.156-20 μM. Samples for the cGMP standard curve were then diluted with an equal volume of methanol resulting in final cGMP concentrations of 0.078-10 μM.
# The cGMP standard curve was generated using GraphPad Prism Software.
# Calculations: Specific Activity was determined by the amount of cGMP formed (nmoles) per mg of sGC per min. Enzyme “fold-change” was calculated by dividing Specific Activity for test compounds by Specific Activity of DMSO controls.
# [3] = read-out: HEK WC Assay (% Emax at 10 uM/with 10 uM SNP)
# [4] = read-out: HEK WC Assay (% Emax at 30 uM/with 10 uM SNP)
# [5] = read-out: HEK WC Assay (% Emax at 1 μM with 10 uM SNP)
# [6] = read-out: HEK WC Assay (% Emax at 10 μM with 10 uM SNP)
# [7] = read-out: HEK WC Assay (% Emax at 30 μM with 10 uM SNP)
# Human soluble guanylate cyclase enzyme (hsGC), sequence (Q02153 whole entry): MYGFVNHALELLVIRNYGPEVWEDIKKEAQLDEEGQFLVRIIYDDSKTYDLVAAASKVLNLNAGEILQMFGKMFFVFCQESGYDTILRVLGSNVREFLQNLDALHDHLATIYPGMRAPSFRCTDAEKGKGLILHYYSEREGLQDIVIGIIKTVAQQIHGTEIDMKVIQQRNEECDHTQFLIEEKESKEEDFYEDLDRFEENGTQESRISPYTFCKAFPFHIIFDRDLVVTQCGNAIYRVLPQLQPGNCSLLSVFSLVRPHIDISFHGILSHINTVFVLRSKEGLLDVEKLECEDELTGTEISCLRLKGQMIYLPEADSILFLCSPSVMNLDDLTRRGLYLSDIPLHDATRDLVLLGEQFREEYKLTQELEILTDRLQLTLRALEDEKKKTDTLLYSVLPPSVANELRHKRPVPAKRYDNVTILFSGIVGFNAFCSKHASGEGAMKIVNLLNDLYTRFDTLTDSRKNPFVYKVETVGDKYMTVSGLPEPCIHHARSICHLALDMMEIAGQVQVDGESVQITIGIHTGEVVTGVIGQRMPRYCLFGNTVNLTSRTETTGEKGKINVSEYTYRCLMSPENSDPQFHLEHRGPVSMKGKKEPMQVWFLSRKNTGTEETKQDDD
# Human soluble guanylate cyclase enzyme (hsGC), sequence (Q02108 whole entry): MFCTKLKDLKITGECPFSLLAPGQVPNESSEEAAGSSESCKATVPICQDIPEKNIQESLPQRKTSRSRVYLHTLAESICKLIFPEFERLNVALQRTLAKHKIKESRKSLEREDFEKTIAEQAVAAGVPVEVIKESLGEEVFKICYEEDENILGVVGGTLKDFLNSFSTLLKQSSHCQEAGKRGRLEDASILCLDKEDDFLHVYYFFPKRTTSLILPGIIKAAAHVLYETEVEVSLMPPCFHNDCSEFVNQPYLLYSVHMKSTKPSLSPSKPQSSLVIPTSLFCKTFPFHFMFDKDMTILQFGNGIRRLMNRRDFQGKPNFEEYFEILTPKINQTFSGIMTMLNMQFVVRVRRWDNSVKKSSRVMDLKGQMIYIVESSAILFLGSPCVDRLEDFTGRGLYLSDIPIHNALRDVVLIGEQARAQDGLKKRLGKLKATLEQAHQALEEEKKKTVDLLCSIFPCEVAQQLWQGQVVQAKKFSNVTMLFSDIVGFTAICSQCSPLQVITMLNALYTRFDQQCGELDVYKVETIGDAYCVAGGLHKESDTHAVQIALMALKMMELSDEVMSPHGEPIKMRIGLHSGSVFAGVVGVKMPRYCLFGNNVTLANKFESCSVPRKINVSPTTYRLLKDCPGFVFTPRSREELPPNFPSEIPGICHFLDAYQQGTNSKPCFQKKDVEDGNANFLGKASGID
# soluble guanylate cyclase (sGC), sequence (Q02153 whole entry): as the sequence (Q02153 whole entry) above
# soluble guanylate cyclase (sGC), sequence (Q02108 whole entry): as the sequence (Q02108 whole entry) above
SMILES,sGC Enzyme (fold increase at 10 μM without SNP) [2],sGC Enzyme (fold increase at 30 μM without SNP) [2],EC50 [1],"Emax [1, 5]","Emax [1, 6]","Emax [1, 7]",also measured
Cc1cc(-c2cc(-c3ccccn3)nn2Cc2ccccc2F)c(C)s1 [Compound I-8],A (A = no increase to <2 fold increase),B (B = 2 to <5 fold increase),–,–,–,–,"Emax at 10 µM [1, 3]: 0 to 10%; Emax at 30 µM [1, 4]: 0 to 10%; sGC Enzyme (specific activity at 10 μM) [2]: C (C = 100 to <200); sGC Enzyme (specific activity at 30 μM) [2]: D (D = 200 to <500)"
Fc1cccc(-c2cc(-c3ccccn3)nn2Cc2ccccc2F)c1 [Compound I-9],A (A = no increase to <2 fold increase),B (B = 2 to <5 fold increase),–,–,–,–,"Emax at 10 µM [1, 3]: 0 to 10%; Emax at 30 µM [1, 4]: 0 to 10%; sGC Enzyme (specific activity at 10 μM) [2]: C (C = 100 to <200); sGC Enzyme (specific activity at 30 μM) [2]: C (C = 100 to <200)"
Fc1ccc(-c2cc(-c3ccccn3)nn2Cc2ccccc2F)cc1 [Compound I-12],A (A = no increase to <2 fold increase),A (A = no increase to <2 fold increase),–,–,–,–,"Emax at 10 µM [1, 3]: 0 to 10%; Emax at 30 µM [1, 4]: 0 to 10%; sGC Enzyme (specific activity at 10 μM) [2]: C (C = 100 to <200); sGC Enzyme (specific activity at 30 μM) [2]: C (C = 100 to <200)"
Cc1cc(-c2cc(-c3ncccn3)nn2Cc2ccccc2F)c(C)s1 [Compound I-14],A (A = no increase to <2 fold increase),A (A = no increase to <2 fold increase),–,–,–,–,"Emax at 10 µM [1, 3]: 0 to 10%; Emax at 30 µM [1, 4]: 0 to 10%; sGC Enzyme (specific activity at 10 μM) [2]: C (C = 100 to <200); sGC Enzyme (specific activity at 30 μM) [2]: C (C = 100 to <200)"
N#Cc1cccc(-c2cc(-c3ccccn3)nn2Cc2ccccc2F)c1 [Compound I-16],A (A = no increase to <2 fold increase),A (A = no increase to <2 fold increase),–,–,–,–,sGC Enzyme (specific activity at 10 μM) [2]: B (B = 50 to <100); sGC Enzyme (specific activity at 30 μM) [2]: B (B = 50 to <100)
N#Cc1ccc(-c2cc(-c3ccccn3)nn2Cc2ccccc2F)cc1 [Compound I-17],A (A = no increase to <2 fold increase),A (A = no increase to <2 fold increase),–,–,–,–,sGC Enzyme (specific activity at 10 μM) [2]: B (B = 50 to <100); sGC Enzyme (specific activity at 30 μM) [2]: B (B = 50 to <100)
"CS(=O)(=O)c1ccc(-c2cc(-c3ccccn3)n(Cc3ccccc3F)n2)nc1 [Compound I-50, 2-(1-(2-fluorobenzyl)-5-(pyridin-2-yl)-1H-pyrazol-3-yl)-5-(methylsulfonyl)pyridine]",A (A = no increase to <2 fold increase),A (A = no increase to <2 fold increase),–,–,–,–,"Emax at 10 µM [1, 3]: 0 to 10%; Emax at 30 µM [1, 4]: 0 to 10%; sGC Enzyme (specific activity at 10 μM) [2]: B (B = 50 to <100); sGC Enzyme (specific activity at 30 μM) [2]: B (B = 50 to <100)"
Fc1ccccc1Cn1nc(-c2ncccn2)cc1-c1cc2ccccc2o1 [Compound I-68],A (A = no increase to <2 fold increase),A (A = no increase to <2 fold increase),–,–,–,–,"Emax at 10 µM [1, 3]: 0 to 10%; Emax at 30 µM [1, 4]: 0 to 10%"
"COc1ccc(-c2cc(-c3ncccn3)nn2Cc2ccccc2F)cn1 [Compound I-77, 2-(1-(2-fluorobenzyl)-5-(6-methoxypyridin-3-yl)-1H-pyrazol-3-yl)pyrimidine]",–,–,–,–,–,–,sGC Enzyme (fold increase at 10 μM) [2]: A (A = no increase to <2 fold increase); sGC Enzyme (fold increase at 30 μM) [2]: A (A = no increase to <2 fold increase)
COc1cccc(-c2cc(-c3ccccn3)n(Cc3ccccc3F)n2)n1 [Compound I-78],–,–,–,–,–,–,sGC Enzyme (fold increase at 10 μM) [2]: A (A = no increase to <2 fold increase); sGC Enzyme (fold increase at 30 μM) [2]: A (A = no increase to <2 fold increase)
Fc1ccccc1Cn1nc(-c2ccccn2)cc1-c1ncccn1 [Compound I-80],–,–,–,–,–,–,Emax at 10 µM ([1]; read-out: HEK WC Assay (% Emax at 10 μM/with 10 uM SNP)): 0 to 10%; Emax at 30 µM ([1]; read-out: HEK WC Assay (% Emax at 30 μM/with 10 uM SNP)): 0 to 10%; sGC Enzyme (fold increase at 10 μM) [2]: A (A = no increase to <2 fold increase); sGC Enzyme (fold increase at 30 μM) [2]: A (A = no increase to <2 fold increase)
CC(C)(C)C(=O)Nc1cnc(-c2cc(-c3ccon3)n(Cc3ccccc3F)n2)nc1 [Compound I-264],–,–,300 to 600 µM,20 to 40%,40 to 60%,0 to 10%,–
CC(C)(CO)C(=O)Nc1cnc(-c2cc(-c3ccon3)n(Cc3ccccc3F)n2)nc1N [Compound I-265],–,–,< 20 µM,40 to 60%,60 to 80%,80 to 100%,–
Oc1nc(-c2cc(-c3ccon3)n(Cc3ccccc3F)n2)ncc1Cl [Compound I-266],–,–,< 20 µM,20 to 40%,60 to 80%,60 to 80%,–
Fc1ccccc1Cn1nc(-c2ncc(F)c(S)n2)cc1-c1ccon1 [Compound I-267],–,–,–,20 to 40%,60 to 80%,80 to 100%,–
CC(C)(CCl)C(=O)Nc1cnc(-c2cc(-c3ccon3)n(Cc3ccccc3F)n2)nc1N [Compound I-268],–,–,< 20 µM,40 to 60%,100 to 120%,80 to 100%,–
Nc1nc(-c2cc(-c3ncco3)n(Cc3ccccc3F)n2)ncc1N=C(c1ccccc1)c1ccccc1 [Compound I-269],–,–,100 to 300 µM,0 to 10%,0 to 10%,10 to 20%,–
CC(C)(C(=O)Nc1cnc(-c2cc(-c3ccon3)n(Cc3ccccc3F)n2)nc1N)n1cncn1 [Compound I-270],–,–,< 20 µM,10 to 20%,40 to 60%,60 to 80%,–
O=S(=O)(c1ccccc1)c1cnc(-c2cc(-c3ncco3)n(Cc3ccccc3F)n2)nc1O [Compound I-271],–,–,< 20 µM,40 to 60%,60 to 80%,80 to 100%,–
Fc1ccccc1Cn1nc(-c2nc(Cl)cc(C(F)(F)F)n2)cc1-c1ccon1 [Compound I-273],–,–,–,–,20 to 40%,20 to 40%,–
CN(C)C(=O)Oc1cnc(-c2cc(-c3ccon3)n(Cc3ccccc3F)n2)nc1 [Compound I-274],–,–,–,20 to 40%,60 to 80%,60 to 80%,–
O=[N+]([O-])c1c(O)nc(-c2cc(-c3ccon3)n(Cc3ccccc3F)n2)nc1O [Compound I-282],–,–,900 to 1200 µM,0 to 10%,0 to 10%,0 to 10%,–
Nc1ccnc(-c2cc(-c3ccco3)n(Cc3ccccc3F)n2)n1 [Compound I-284],–,–,–,–,60 to 80%,60 to 80%,–
Fc1ccccc1Cn1nc(-c2ccccn2)cc1-n1cccn1 [Compound I-286],–,–,–,–,0 to 10%,10 to 20%,–
Fc1ccccc1Cn1nc(-c2nc(Cl)cc(-c3cccnc3)n2)cc1-c1ccon1 [Compound I-301],–,–,< 20 µM,–,40 to 60%,60 to 80%,–
CC(C)(C)OC(=O)n1c(=O)[nH]c2nc(-c3cc(-c4ccon4)n(Cc4ccccc4F)n3)ncc21 [Compound I-312],–,–,40 to 60 µM,20 to 40%,20 to 40%,20 to 40%,–
